Assay type in all cases: in vivo, human
One experiment deals with male subjects with T2DM. The experiment is described as follows: Eight week single-blind treatment study; responder defined by composite score of glycemic-lowering efficacy (FPG, fructosamine, HbA1c). The note with it: responder = composite % reduction 1(%ΔFPG)+2(%ΔFructosamine)+1.5(%ΔHbA1c) greater than 30%, 8 weeks. The source says: The study described herein was relatively small-scale (75 male subjects with T2DM) and short-term (8 weeks of treatment). Serum and urine samples were obtained at pre-treatment baseline, and after 4 and 8 weeks of treatment with one of the following: placebo, rosiglitazone, metformin or glyburide. High information content nuclear magnetic resonance (NMR) and liquid chromatography/mass spectroscopy (LC/MS)-based metabolomic platforms, including polar metabolite and lipid profiling, were used to profile the serum and urine samples. A variety of multivariate analysis techniques were used to determine whether polar low molecular weight metabolites, lipids, or fatty acids, analyzed in readily accessible fluids can be used to predict drug responder status at week 8 based on their measurement at baseline or at week 4.
Male subjects aged 30 to 70 years with a documented history of stable T2DM for no more than 10 years duration were eligible for the study described herein if they had been previously treated with diet and exercise alone, monotherapy or low-dose combination therapy. Fasting plasma glucose (FPG) at screening could not exceed 225 mg/dL for subjects treated with diet and exercise alone or 180 mg/dL for subjects receiving monotherapy or low-dose combination therapy. HbA1c was required to be within 5.7 to 10.0% with the following conditions; subjects with HbA1c between 5.7 and 9% must have been diabetic for less than 5 years and treated with mono or low dose combination therapy and have a FBG of 125 to 180 mg/dL, and subjects with HbA1c between 9.1 and 10.0% must not have been treated with combination therapy. In addition, body mass index must have been within the range of 25 to 37.5 kg/m^2, for subjects aged […] years, or 25 to 35.0 kg/m^2 for subjects aged 56 to 70 years. […]
Originally, efficacy response was defined as a FPG decrease of greater than 30 mg/dl. […] Fructosamine, whose half-life is determined by that of albumin, provides a measure of integrated glucose over a period of 2-4 weeks. […]

A further experiment relates to urine citrate. The experiment is described as follows: Urine citrate measured by NMR at week 0 and week 8 in rosiglitazone responders and non-responders. To be noted: week 8 vs week 0. As to the method: FIGS. 4A-4C show the measure of selected biomarkers in urine or serum.
Male subjects aged 30 to 70 years with a documented history of stable T2DM for no more than 10 years duration were eligible for the study described herein if they had been previously treated with diet and exercise alone, monotherapy or low-dose combination therapy. Fasting plasma glucose (FPG) at screening could not exceed 225 mg/dL for subjects treated with diet and exercise alone or 180 mg/dL for subjects receiving monotherapy or low-dose combination therapy. […]
Serum and urine samples were analyzed using various metabolomic platforms and with traditional serum biomarker (“non-omic”) measurements. Both urine and serum were measured by nuclear magnetic resonance (NMR)-based metabolic profiling. Serum samples were also analyzed by liquid chromatograph (LC)/mass spectrometry (MS) for polar metabolites and lipids, and gas chromatograph (GC)-flame ionization for fatty acids (lipidomics). […]
Citrate may play a critical role in cataplerosis (the export of mitochondrial intermediates into the cytosol and in the induction of fatty acid-derived signaling molecules) and glucose-regulated insulin release [Flamez, D. et al., Diabetes 51, 2018-2024 (2002)]. Because citrate was not quantified in plasma or liver, it is hard to pinpoint the actual biochemical context for the change in this metabolite. […]

Experiment [1] has as its system inflammation associated with obesity and diabetes. The experiment is described as follows: Apparent inflammation observed in the study under rosiglitazone treatment. The note with it: observed in this study and also reported in the literature. The source says: Serum IL-8 at baseline was higher in responders than non-responders (p=0.032) (FIG. 4C). IL-8 is an important cytokine in the inflammatory process. It is stimulated by high glucose concentrations in endothelial cells in vitro and has chemotactic activity for polymorphonuclear neutrophils (playing an important role in the pathogenesis of chronic complications of diabetes), as well as for T-lymphocyte and smooth muscle cells. Serum IL-8 level was reported to markedly increase in diabetic patients [Zozulinska, D., et al., Diabetologia 42, 117-118 (1999)]. […] Thus, it seems consistent that subjects with higher IL-8 levels were more responsive to rosiglitazone treatment.

As to `COc1ccc(Cl)cc1C(=O)NCCc1ccc(S(=O)(=O)NC(=O)NC2CCCCC2)cc1` [Glyburide, 5-chloro-N-[2-[4-(cyclohexylcarbamoylsulfamoyl)phenyl]ethyl]-2-methoxy-benzamide], the “Fractions of responders in each treatment after eight weeks of treatment” value (shortened to “Fractions of responders”) in the experiment on male subjects with T2DM came to 0.60.
Turning to `CN(C)C(=N)N=C(N)N` [Metformin], in the experiment on male subjects with T2DM, the “Fractions of responders” value is 0.53.
For the molecule `CN(CCOc1ccc(CC2SC(=O)NC2=O)cc1)c1ccccn1` (stereo not drawn) [Rosiglitazone, 5-[[4-[2-(methyl-pyridin-2-yl-amino)ethoxy]phenyl]methyl]thiazolidine-2,4-dione], in the experiment with male subjects with T2DM, the “Fractions of responders” value came out at 0.43. In the experiment with urine citrate (non-responders (n=12)), the “change in level of urine citrate after 8 week treatment, non-responder subjects” value is listed as “did not change”. In the experiment on urine citrate (responders (n=9)), the “change in level of urine citrate after 8 week treatment, responder group” value is given as “did increase urine citrate (not statistically significant)”. In addition, in experiment [1], the “effect of treatment on apparent inflammation” value is “reduce apparent inflammation”.

(Values after patent US20100273661A1, “Methods and Kits for Predicting Treatment Response in Type II Diabetes Mellitus Patients” (SmithKline Beecham Corporation, priority 2007, published 2010).)
